Molecular target: menin protein (Homo sapiens (Human), UniProt O00255)
Assay: biochemical
Type: binding
Settings: FP competitive binding; menin protein 4 nM, FAM-MM2 probe 2 nM
Summary of the method: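 Competitive fluorescence polarization assay using FAM-labelled MLL1 peptide probe FAM-MM2 (2 nM final) preincubated with menin (4 nM final) in PBS with 0.02% bovine γ-globulin, 4% DMSO and 0.01% Triton X-100. Compounds were added and incubated 30 min at room temperature. IC50 came from nonlinear regression of competition curves, with Ki also derived.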

menin protein, sequence (O00255 whole entry): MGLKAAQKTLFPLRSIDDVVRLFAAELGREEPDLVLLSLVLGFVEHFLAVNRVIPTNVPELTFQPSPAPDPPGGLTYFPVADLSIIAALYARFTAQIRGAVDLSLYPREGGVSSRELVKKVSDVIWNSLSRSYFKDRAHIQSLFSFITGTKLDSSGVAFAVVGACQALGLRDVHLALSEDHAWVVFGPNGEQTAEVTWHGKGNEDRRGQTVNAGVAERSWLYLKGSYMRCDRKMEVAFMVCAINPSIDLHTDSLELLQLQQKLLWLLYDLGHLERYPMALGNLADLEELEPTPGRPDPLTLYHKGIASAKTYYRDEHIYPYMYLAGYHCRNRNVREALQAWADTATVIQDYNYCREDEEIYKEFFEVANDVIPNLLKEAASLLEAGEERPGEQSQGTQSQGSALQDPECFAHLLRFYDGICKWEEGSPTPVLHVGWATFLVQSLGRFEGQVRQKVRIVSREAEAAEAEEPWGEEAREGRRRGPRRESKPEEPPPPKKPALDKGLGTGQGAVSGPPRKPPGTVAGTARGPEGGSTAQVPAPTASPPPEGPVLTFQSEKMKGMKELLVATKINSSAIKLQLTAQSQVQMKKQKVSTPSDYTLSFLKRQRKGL

Row | Menin Binding Affinity IC50 (μM) | Structure (SMILES)
1 | No inhibition | CC(=O)O[C@H]1CCC[C@@H]1C(C#N)(c1ccccc1)C1CCN(CC#Cc2ccc(C#N)cc2)CC1 (mixture of isomers) [compound 386, rac-(1S,2R)-2-(cyano(1-(3-(4-cyanophenyl)prop-2-yn-1-yl)piperidin-4-yl)(phenyl)methyl)cyclopentyl acetate]
2 | No inhibition | CCN1Cc2ccccc2C(C2CCCC2)(C2CCN(S(=O)(=O)C3CN(c4ccc(C#N)cc4)C3)CC2)C1 (stereo not drawn) [compound 159, 4-(3-((4-(4-cyclopentyl-2-ethyl-1,2,3,4-tetrahydroisoquinolin-4-yl)piperidin-1-yl)sulfonyl)azetidin-1-yl)benzonitrile]

Same assay, conditions: FP competitive binding; menin protein 4 nM, FAM-MM2 probe 2 nM; read-out: Menin Binding Affinity IC50

Row | Structure (SMILES) | IC50 [nM]
3 | CC(=O)N[C@@H]1CCC[C@H]1C(C#N)(c1ccccc1)C1CCN(CC2CN(c3ccc(S(=O)(=O)c4ccncc4)cc3)C2)CC1 (mixture of isomers) [compound 264, rac-N-((1R,2S)-2-(cyano(phenyl)(1-((1-(4-(pyridin-4-ylsulfonyl)phenyl)azetidin-3-yl)methyl)piperidin-4-yl)methyl)cyclopentyl) acetamide] | 555
4 | COCCCN1CCC(C2(C3CCCC3)NCCc3ccccc32)CC1 (stereo not drawn) [compound 73, 1-cyclopentyl-1-(1-(3-methoxypropyl)piperidin-4-yl)-1,2,3,4-tetrahydroisoquinoline] | 9900
5 | CNC(=O)O[C@@H]1CCC[C@H]1C(Cn1cccc1)(c1ccccc1)C1CCN(CC2CN(c3ccc(S(=O)(=O)c4ccccc4)cc3)C2)CC1 (mixture of isomers) [compound 358, rac-(1R,2S)-2-(1-phenyl-1-(1-((1-(4-(phenylsulfonyl)phenyl)azetidin-3-yl)methyl)piperidin-4-yl)-2-(1H-pyrrol-1-yl)ethyl)cyclopentyl methylcarbamate] | 221
6 | CCS(=O)(=O)c1ccc(N2CC(CN3CCC(C4(C5CCCC5)CN(C)Cc5ccccc54)CC3)C2)cc1 (stereo not drawn) [compound 69, 4-cyclopentyl-4-(1-((1-(4-(ethylsulfonyl)phenyl)azetidin-3-yl)methyl)piperidin-4-yl)-2-methyl-1,2,3,4-tetrahydroisoquinoline] | 30
7 | CCC(CC)CC1(C2CCN(CCCOc3ccc(C#N)cc3)CC2)NCCc2ccccc21 (stereo not drawn) [compound 252, 4-(3-(4-(1-(2-ethylbutyl)-1,2,3,4-tetrahydroisoquinolin-1-yl)piperidin-1-yl)propoxy)benzonitrile] | 1200
8 | O=S(=O)(c1ccncc1)c1ccc(N2CC(CN3CCC(C4(C5CCCC5)CN(Cc5ccncc5)Cc5ccccc54)CC3)C2)cc1 (stereo not drawn) [compound 53, 4-cyclopentyl-2-(pyridin-4-ylmethyl)-4-(1-((1-(4-(pyridin-4-ylsulfonyl)phenyl)azetidin-3-yl)methyl)piperidin-4-yl)-1,2,3,4-tetrahydroisoquinoline] | 1100
9 | CC(=O)O[C@@H]1CCC[C@H]1C(C#N)(c1ccccc1F)C1CCN(CCCOc2ccc(C#N)cc2)CC1 (mixture of isomers) [compound 309, rac-(1R,2S)-2-(cyano(1-(3-(4-cyanophenoxy)propyl)piperidin-4-yl)(2-fluorophenyl)methyl) cyclopentyl acetate] | 11400
10 | CN1CCC(C2(C3CCCC3)NCCc3ccccc32)CC1 (stereo not drawn) [compound 75, 1-cyclopentyl-1-(1-methylpiperidin-4-yl)-1,2,3,4-tetrahydroisoquinoline] | 142000
11 | O=S(=O)(c1ccncc1)c1ccc(N2CC(CN3CCC(C4(C5CCCC5)CN(CC5COC5)Cc5ccccc54)CC3)C2)cc1 (stereo not drawn) [compound 52, 4-cyclopentyl-2-(oxetan-3-ylmethyl)-4-(1-((1-(4-(pyridin-4-ylsulfonyl)phenyl)azetidin-3-yl)methyl)piperidin-4-yl)-1,2,3,4-tetrahydroisoquinoline] | 25
12 | c1ccc(CN2CCC(CC3(C4CCCC4)NCCc4ccccc43)CC2)cc1 (stereo not drawn) [compound 106, 1-((1-benzylpiperidin-4-yl)methyl)-1-cyclopentyl-1,2,3,4-tetrahydroisoquinoline] | 84100
13 | N#Cc1ccc(OCCCN2CCC(C3(C4CCCC4)COCc4ccccc43)CC2)cc1 (stereo not drawn) [compound 35, 4-(3-(4-(4-cyclopentylisochroman-4-yl)piperidin-1-yl)propoxy)benzonitrile] | 3200
14 | CC(C)(C)S(=O)(=O)c1ccc(N2CC(CN3CCC(C4(C5CCCC5)NCCc5ccccc54)CC3)C2)cc1 (stereo not drawn) [compound 87, 1-(1-((1-(4-(tert-butylsulfonyl)phenyl)azetidin-3-yl)methyl)piperidin-4-yl)-1-cyclopentyl-1,2,3,4-tetrahydroisoquinoline] | 122

Continued, values first:

Row | IC50 [nM] | Structure (SMILES)
15 | 6500 | CS(=O)(=O)c1ccc(N2CC(CN3CCC(C(C#N)(c4ccccc4)[C@H]4CCC[C@@H]4O)CC3)C2)cc1 (mixture of isomers) [compound 178, rac-2-((1R,2S)-2-hydroxycyclopentyl)-2-(1-((1-(4-(methylsulfonyl)phenyl)azitidin-3-yl)methyl)piperidin-4-yl)-2-phenylacetonitrile]
16 | 435 | N#CC(c1ccccc1)(C1CCN(CC2CN(c3ccc(S(=O)(=O)c4ccncc4)cc3)C2)CC1)[C@@H]1CCC[C@H]1OC(=O)C1CCC1 (mixture of isomers) [compound 208, rac-(1R,2S)-2-(cyano(phenyl)(1-((1-(4-(pyridin-4-ylsulfonyl)phenyl)azetidin-3-yl)methyl)piperidin-4-yl)methyl)cyclopentyl cyclobutanecarboxylate]
17 | 63 | CNC(=O)O[C@H]1CCC[C@@H]1C(CN1CCCC1)(c1ccccc1)C1CCN(CC2CN(c3ccc(S(=O)(=O)c4ccccc4)cc3)C2)CC1 (mixture of isomers) [compound 361, rac-(1S,2R)-2-(1-phenyl-1-(1-((1-(4-(phenylsulfonyl)phenyl)azetidin-3-yl)methyl)piperidin-4-yl)-2-(pyrrolidin-1-yl)ethyl)cyclopentyl methylcarbamate]
18 | 2700 | CO[C@@H]1CCC[C@H]1C1(C2CCN(CCCOc3ccc(C#N)cc3)CC2)CN(C)Cc2ccccc21 (mixture of isomers) [compound 326, rac-4-(3-(4-(4-((1S,2R)-2-methoxycyclopentyl)-2-methyl-1,2,3,4-tetrahydroisoquinolin-4-yl)piperidin-1-yl)propoxy)benzonitrile]
19 | 10300 | CSC[C@H]1CCC[C@@H]1C(C#N)(c1ccccc1)C1CCN(CC2CN(c3ccc(S(=O)(=O)c4ccncc4)cc3)C2)CC1 (mixture of isomers) [compound 259, rac-2-((1S,2S)-2-((methylthio)methyl)cyclopentyl)-2-phenyl-2-(1-((1-(4-(pyridin-4-ylsulfonyl)phenyl)azetidin-3-yl)methyl)piperidin-4-yl)acetonitrile]
20 | 5600 | CCNC(=O)[C@H]1CCC[C@@H]1C(C#N)(c1ccccc1)C1CCN(CC2CN(c3ccc(S(=O)(=O)C4CC4)cc3)C2)CC1 (mixture of isomers) [compound 335, rac-(1S,2S)-2-(cyano(1-((1-(4-(cyclopropylsulfonyl)phenyl)azetidin-3-yl)methyl)piperidin-4-yl)(phenyl)methyl)-N-ethylcyclopentane-1-carboxamide]
21 | 3400 | CCNC(=O)O[C@@H]1CCC[C@H]1C(C#N)(c1ccccc1)C1CCN(CC2CN(c3ccc(S(=O)(=O)c4ccncc4)cc3)C2)CC1 (mixture of isomers) [compound 214, rac-(1R,2S)-2-(cyano(phenyl)(1-((1-(4-(pyridin-4-ylsulfonyl)phenyl)azetidin-3-yl)methyl)piperidin-4-yl)methyl)cyclopentyl ethylcarbamate]
